Two compounds from patent publication US11945779B2, “Inhibitors of cancer metastasis through inhibiting migration and invasion of cancer cells” (VSpharmtech, priority 2018, dated 2024) can be followed below.

Structures are written as SMILES.

The subject of data set [1] is colon cancer cell line DLD-1. The data set can be described thus: Trans-well cancer cell migration inhibition, DLD-1. It is filed as cell-based, human. Particulars: for IC50: Colon cancer cell DLD-1, trans-well, 16 hours, read-out: Concentration inhibiting migration of cancer cells by 50% (IC50 value). As for the experimental part:
(§1) In order to analyze cancer cell migration inhibitory activity of CG-608, CG-609 or CG-618 prepared in Examples 1, 2, or 9, cell migration inhibitory activity was measured using a trans-well by targeting a colon cancer cell line DLD-1 (ATCC-CCL-221), pancreatic cancer cell lines AsPc-1 (ATCC-CCL-1682). CFPAC-1 (ATCC-CCL-1918). Panc-1 (ATCC-CCL-1469), and Miapaca-2 (ATCC-CCL-1420), a skin cancer cell line A375-P (ATCC-CCL-3224), lung cancer cell lines HCC-827 (ATCC-CCL-2868), A549 (ATCC-CCL-185), and NCI-H460 (ATCC-CCL-177), a prostate cancer cell line DU145 (ATCC-HTB-81), a stomach cancer cell line NuGC-3 (JCRB0822), and an ovarian cancer cell line SKOV-3 (ATCC-HTB-77).
(§2) First, the number of DLD-1 cells was measured using a hemocytometer in an RPMI medium without FBS. Thereafter, the trans-well was placed on a 24-well plate and 8×10^4 […] of cells were added. In an empty space with the trans-well on the well plate, […] of an RPM medium having 10% FBS containing CG-608, CG-609, or CG-618 was added and cultured in a CO2 incubator at 37° C. for 16 hours. After culture, […] of crystal violet (5 mg/mL of 20% […] was added to each well of the 24-well plate and the trans-well was dyed at room temperature for 30 minutes. The dyed trans-well was washed with PBS and non-migrated cells were wiped off with cotton swabs. The prepared sample was photographed with an inverted microscope mounted with a digital camera (TE 300, Nikon. Japan) and then the number of migrated cells was counted. The degree of inhibiting cell migration was calculated by Equation 1 for a group treated with the sample compared to a control group (DMSO).
(§3) In Equation 1, ‘the number of migrated cells treated with sample’ refers to the number of migrated cells measured by treating CG-608 or CG-618 of Example 1, and ‘the number of migrated cells of a control sample’ refers to the number of migrated cells measured by treating only 1% dimethyl sulfoxide (DMSO) instead of the compound.

In data set [2] the test system is pancreatic cancer cell line AsPc-1. The data set can be described thus: Trans-well cancer cell migration inhibition, AsPc-1. It is filed as cell-based. Particulars: Homo sapiens, ASPC1; for IC50: Pancreatic cancer cell line AsPc-1, read-out: Concentration inhibiting migration of cancer cells by 50% (IC50 value). As for the experimental part: as §1, §2, §3
Data set [3] deals with skin cancer cell line A375-P. The experiment in a line: Trans-well cancer cell migration inhibition, A375-P. It counts as cell-based. The note with it: Homo sapiens, A375P; for IC50: Skin cancer cell A375-P, read-out: Concentration inhibiting migration of cancer cells by 50% (IC50 value). The protocol: as §1, §2, §3
Data set [4] has as its system prostate cancer cell line DU145. The experiment in a line: Trans-well cancer cell migration inhibition, DU145. It is filed as cell-based. The note with it: for IC50: Homo sapiens, DU-145, Prostate cancer cell DU145, read-out: Concentration inhibiting migration of cancer cells by 50% (IC50 value). The protocol: as §1, §2, §3
The test system of data set [5] is lung cancer cell line HCC-827. The data set can be described thus: Trans-well cancer cell migration inhibition, HCC-827. It is filed as cell-based. The note with it: Homo sapiens, HCC827; for IC50: Lung cancer cell HCC-827, read-out: Concentration inhibiting migration of cancer cells by 50% (IC50 value). As for the experimental part: as §1, §2, §3
The test system of data set [6] is stomach cancer cell line NuGC-3. The experiment in a line: Trans-well cancer cell migration inhibition, NuGC-3. It is filed as cell-based. Particulars: for IC50: Homo sapiens, Gastric cancer cell NuGC-3, read-out: Concentration inhibiting migration of cancer cells by 50% (IC50 value). As for the experimental part:
as §1, §2, §3

The subject of a further data set is normal cells MCF10A. The data set can be described thus: Cytotoxicity analysis (WST-1), normal cells MCF10A. It is filed as cell-based. The note with it: for Cytotoxicity in normal cells: 1 μM, 5 μM, 10 μM, 48 hours, WST-1, FIG. 2; for Growth of normal cells: FIG. 2. The protocol: (§4) In order to verify cytotoxicity of CG-608 to CG-610 and CG-613 to CG-618 prepared in Examples 1 to 9, human colon cancer cell line DLD-1 cells (ATCC-CCL-221), pancreatic cancer cell line AsPc-1 cells (ATCC-CRL-1682), and normal cells MCF10A (ATCC-CRL-10317) were cultured in an RPMI medium containing 10% bovine fetal serum (FBS) while maintaining 37° C. and 5% CO2, and then the cells were detached using a 0.05% trypsin-EDTA. 4×10^3 cells calculated by a hematocytometer were inoculated in each well of a 96-well plate containing a 10% FBS containing medium and cultured in a 37° C. incubator containing 5% C2.
(§5) After 24 hours, the medium of each well was exchanged to a new medium containing a control group (0.1% DMSO) and CG-609 prepared in Example 1 or CG-618 prepared in Example 9 as a representative benproperine derivative at concentrations of 1 μM, 5 μM, and 10 μM. Thereafter, the cells were cultured in an incubator at 37° C. and 5% CO2 for 48 hours. Thereafter, […] of WST-1 (Roche) was added to each well and cultured for 2 hours, and then the absorbance was measured at 450 nm using an ELISA reader (Bio-Rad).
(In general: Tetrazolium assays rely on reduction of a dye to a coloured formazan, in cell work by metabolically active cells.)

Data set [7] concerns colon cancer cell line DLD-1. The data set can be described thus: Cytotoxicity / proliferation analysis (WST-1), DLD-1. It is filed as cell-based, human. Particulars: DLD-1, FIG. 8. As for the experimental part: as §4, §5
In another data set the test system is colon cancer cells DLD-1. The experiment in a line: Cancer cell invasion inhibition (Matrigel trans-well), DLD-1. The note with it: Homo sapiens, FIG. 8, read-out: Inhibition of cell invasion compared with DMSO-treated control. It is filed as cell-based. The protocol: In order to analyze cancer cell invasion inhibitory activity of CG-609 or CG-618 prepared in Example 1 or 9, cell invasion inhibitory activity using a trans-well was measured by targeting colon cancer cell line DLD-1 cells or pancreatic cancer cell line AsPc-1 cells.
Matrigel was diluted by 1/5 using an RPMI medium without FBS and then […] was put into each trans-well. The cells were coated in a […] for 2 hours. The number of DLD-1 cells was measured using a hemocytometer in an RPMI medium without FBS. Thereafter, the coated trans-well was placed on a 24-well plate and 8×10^4 […] of cells were added. In an empty space of the trans-well on the well plate, […] of an RPMI medium having 10% FBS containing (S)-(−)-benproperine was added and cultured in a CO2 incubator at 37° C. for 16 hours. After culture, […] of crystal violet (5 mg/mL of 20% MeOH) was added to each well of the 24-well plate and the trans-well was dyed at room temperature for 30 minutes. The dyed trans-well was washed with PBS and non-migrated cells were wiped off with cotton swabs. The prepared sample was photographed with an inverted microscope mounted with a digital camera (TE 300, Nikon, Japan), and then the number of migrated cells was counted. The degree of inhibiting cell migration was calculated for a group treated with the sample compared to a control group (DMSO).

A short description of data set [8]: Acute toxicity test for oral administration to rats. The note with it: rat, in vivo, 1000 mg/kg; SD rats, single oral dose; read-out: Minimum dose (LD50) of oral administration. As for the experimental part:
Six-week-old specific pathogen free (SPF) SD-based rats were divided by two per group and then CG-608, CG-609, or CG-618 prepared in Example 1, 2, or 9 was dissolved in distilled water for injection and orally administered to rats once in a dose of 1000 mg/kg.

Consider `C[C@H](COc1ccccc1Cc1ccccc1)N1CCCC[C@@H]1C` [CG-609, (S)-1-((R)-1-(2-benzylphenoxy)propan-2-yl)-2-methylpiperidine], for which the “Cancer cell migration inhibitory activity relative to the benproperine derivative compound known in the related art” value in data set [1] (DLD-1) is given as “more than 20 times”. In addition, the IC50 is 60 nM in data set [1] (Homo sapiens); 110 nM in [2]; 700 nM in data set [3]; 2000 nM in [4]; 210 nM in [5]; 5000 nM in data set [6]. For the same compound, in [1] (Homo sapiens, DLD-1, 50 nM, FIG. 4A), the inhibition (commonly how much of the control response was suppressed) at 0.05 µM is not below 50%. Also, the inhibition at 1 µM in data set [1] (Homo sapiens, DLD-1, 1 μM, FIG. 3) is not below 50%; in data set [2] (AsPc-1, 1 μM, FIG. 3) it was not below 50%; in data set [3] (A375-P, 1 μM, FIG. 3) it was not below 50%; in data set [5] (HCC-827, 1 μM, FIG. 3) it was not below 50%. For the same compound, the “Inhibition of cell migration” value is not below 50% in data set [4] (DU-145, concentration not given, FIG. 3) and not below 50% in data set [6] (NuGC-3, concentration not given, FIG. 3). For the same compound, in the data set with normal cells MCF10A, the “Cytotoxicity in normal cells” value was “did not exhibit cytotoxicity”. Further, the “Growth of normal cells” value with normal cells MCF10A is reported as “did not inhibit”. The “Growth of cancer cells” value in [7] was “did not affect the growth”. Further, the inhibition at 0.1 µM in the data set on colon cancer cells DLD-1 (DLD-1, 100 nM) is not below 50%. For the same compound, in [8], the LD50 was not below 1000 mg/kg.

Turning to `CC1CCCCN1C(C)COc1ccccc1Cc1ccccc1` (racemic) [CG-618, 1-(1-(2-benzylphenoxy)propan-2-yl)-2-methylpiperidine], the IC50 in [1] (Homo sapiens) amounted to 550 nM; in data set [2], 700 nM; in data set [3] it was 3000 nM; in [4], 3000 nM; in [5], 500 nM; in data set [6], 8000 nM. In the data set on normal cells MCF10A, the “Cytotoxicity in normal cells” value is listed as “did not exhibit cytotoxicity”. Further, in the data set on normal cells MCF10A, the “Growth of normal cells” value is on record as “did not inhibit”. Besides, the “Growth of cancer cells” value in data set [7] was “did not affect the growth”. Further, the inhibition at 0.5 µM in the data set on colon cancer cells DLD-1 (DLD-1, 500 nM) was not below 50%. Further, in data set [8], the LD50 is not below 1000 mg/kg.
